Earlier results in patent US12138351B2, “Pharmaceutical composition for oral administration comprising aminopyrimidine derivative or pharmaceutically acceptable salt, hydrate, or solvate thereof” (Janssen Biotech, Inc., priority 2020, dated 2024).
Where two headings read alike, the source gives them in different places.

What was measured:
[1] = system: T790M single active mutation (EGFRm) and double mutation; details: known irreversible EGFR TKI
wild-type EGFR = wild-type EGFR (Homo sapiens, UniProt P00533); details: known irreversible EGFR TKI
wild-type EGFR, sequence (P00533 25-1210): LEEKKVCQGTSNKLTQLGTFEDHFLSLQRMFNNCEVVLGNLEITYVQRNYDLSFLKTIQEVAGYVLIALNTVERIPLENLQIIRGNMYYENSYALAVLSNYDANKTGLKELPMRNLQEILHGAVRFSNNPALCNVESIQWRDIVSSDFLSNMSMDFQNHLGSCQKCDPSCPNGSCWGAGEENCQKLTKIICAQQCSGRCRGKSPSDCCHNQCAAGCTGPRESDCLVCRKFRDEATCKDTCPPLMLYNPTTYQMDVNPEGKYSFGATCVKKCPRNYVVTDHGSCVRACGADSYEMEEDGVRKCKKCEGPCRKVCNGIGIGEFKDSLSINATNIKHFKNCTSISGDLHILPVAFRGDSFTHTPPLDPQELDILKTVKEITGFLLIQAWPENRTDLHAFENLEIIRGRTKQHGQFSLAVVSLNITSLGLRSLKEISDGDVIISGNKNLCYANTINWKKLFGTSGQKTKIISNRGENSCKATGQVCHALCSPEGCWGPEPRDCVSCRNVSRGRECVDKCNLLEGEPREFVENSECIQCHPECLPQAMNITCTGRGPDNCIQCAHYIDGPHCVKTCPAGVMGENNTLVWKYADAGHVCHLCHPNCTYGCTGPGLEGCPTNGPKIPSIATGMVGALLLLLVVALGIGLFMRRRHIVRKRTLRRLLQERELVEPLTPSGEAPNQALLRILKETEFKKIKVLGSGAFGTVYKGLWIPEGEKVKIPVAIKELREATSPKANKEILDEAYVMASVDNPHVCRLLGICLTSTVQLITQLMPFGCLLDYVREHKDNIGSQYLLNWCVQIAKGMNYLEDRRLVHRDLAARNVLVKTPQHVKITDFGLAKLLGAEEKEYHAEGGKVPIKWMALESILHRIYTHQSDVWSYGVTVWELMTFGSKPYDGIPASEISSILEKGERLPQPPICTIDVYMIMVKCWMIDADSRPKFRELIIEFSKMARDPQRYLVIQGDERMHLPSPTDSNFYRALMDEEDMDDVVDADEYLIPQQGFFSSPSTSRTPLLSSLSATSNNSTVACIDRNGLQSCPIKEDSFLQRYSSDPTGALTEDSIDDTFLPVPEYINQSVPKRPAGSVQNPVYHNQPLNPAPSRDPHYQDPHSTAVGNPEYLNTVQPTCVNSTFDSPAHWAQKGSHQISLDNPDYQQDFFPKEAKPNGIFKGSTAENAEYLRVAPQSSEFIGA

[2] = compared to the compound in the form of free-base

Compound	inhibitory activity on T790M single active mutation (EGFRm) and double mutation [1]	effect on wild-type EGFR (wild-type EGFR)	bioavailability (co-administration with, e.g., an antacid, as well as administration alone)	bioavailability (compared to the compound in the form of free-base)	stability [2]
C=CC(=O)Nc1cc(Nc2nccc(-n3cc(CN(C)C)c(-c4ccccc4)n3)n2)c(OC)cc1N1CCOCC1 [Lazertinib, N-(5-(4-(4-((dimethylamino)methyl)-3-phenyl-1H-pyrazol-1-yl)pirimidine-2-ylamino)-4-methoxy-2-morpholinophenyl)acrylamide]	strong inhibitory activity	less effect	–	–	–
N-(5-(4-(4-((dimethylamino)methyl)-3-phenyl-1H-pyrazol-1-yl)pirimidine-2-ylamino)-4-methoxy-2-morpholinophenyl)acrylamide mesylate [Lazertinib mesylate]	–	–	excellent bioavailability	excellent	excellent
